These results are taken from ChEMBL document CHEMBL4145540 (Eur J Med Chem, 2018).

Activity calls are given as the source filed them. The rule behind the calls is not given here. Bounds are passed on as bounds.

One assay deals with HT-29. Put plainly: Antiproliferative activity against human HT-29 cells after 2 days by MTT assay. It is filed as functional, cell-based. The conditions noted are these: HT-29, 48 h. (Tetrazolium dyes change colour on reduction, which living cells bring about.)
A further assay relates to MCF7. Put plainly: Antiproliferative activity against human MCF7 cells after 2 days by MTT assay. It is filed as functional, cell-based. Conditions: MCF7, 48 h.
For the next assay, the system named is HeLa. Kind of assay: Antiproliferative activity against human HeLa cells after 2 days by MTT assay. It is filed as functional, cell-based. The conditions noted are these: 48 h.
The test system of assay [1] is A549. Put plainly: Antiproliferative activity against human A549 cells after 2 days by MTT assay. It is filed as functional, cell-based. Conditions: A549, 48 h.
The next assay has as its system HL-60. Kind of assay: Antiproliferative activity against human HL60 cells after 2 days by MTT assay. The conditions noted are these: HL-60, 48 h. It is filed as functional, cell-based.
For assay [2], the system named is HMEC-1. Put plainly: Antiproliferative activity against HMEC1 cells after 2 days by MTT assay. Conditions: Homo sapiens, HMEC-1, 48 h. It is filed as functional, cell-based.
Another assay has as its system HEK293. Put plainly: Antiproliferative activity against HEK293 cells after 2 days by MTT assay. It is filed as cell-based. Conditions: Homo sapiens, HEK293, 48 h.
The subject of assay [3] is MDA-MB-231. Put plainly: Antiproliferative activity against human MDA-MB-231 cells after 3 days by coulter counting method. Type of assay: functional, cell-based. The conditions noted are these: MDA-MB-231, 72 h.
Assay [4] concerns A549. Kind of assay: Cell cycle arrest in human A549 cells assessed as accumulation at sub-G0 phase at 160 nM after 20 hrs by propidium iodide staining based flow cytometry (reference value: 6.6 +/- 0.1%). Type of assay: functional.
The test system of assay [5] is A549. Put plainly: Cell cycle arrest in human A549 cells assessed as accumulation at G0/G1 phase at 160 nM after 20 hrs by propidium iodide staining based flow cytometry (reference value: 66 +/- 1%). Type of assay: functional. A general note: A flow cytometer gives signals particle by particle.
For assay [6], the system named is A549. Put plainly: Cell cycle arrest in human A549 cells assessed as accumulation at S phase at 160 nM after 20 hrs by propidium iodide staining based flow cytometry (reference value: 16 +/- 1%). It is filed as functional.
The test system of assay [7] is A549. Kind of assay: Cell cycle arrest in human A549 cells assessed as accumulation at G2/M phase at 160 nM after 20 hrs by propidium iodide staining based flow cytometry (reference value: 11 +/- 1%). It is filed as functional.
The test system of assay [8] is A549. Put plainly: Cell cycle arrest in human A549 cells assessed as accumulation at sub-G0 phase at 90 nM after 20 hrs by propidium iodide staining based flow cytometry (reference value: 6.6 +/- 0.1%). Type of assay: functional.
Assay [9] has as its system A549. Put plainly: Cell cycle arrest in human A549 cells assessed as accumulation at G0/G1 phase at 90 nM after 20 hrs by propidium iodide staining based flow cytometry (reference value: 66 +/- 1%). It is filed as functional.
Assay [10] concerns A549. Put plainly: Cell cycle arrest in human A549 cells assessed as accumulation at S phase at 90 nM after 20 hrs by propidium iodide staining based flow cytometry (reference value: 16 +/- 1%). Type of assay: functional.
The subject of assay [11] is A549. Put plainly: Cell cycle arrest in human A549 cells assessed as accumulation at G2/M phase at 90 nM after 20 hrs by propidium iodide staining based flow cytometry (reference value: 11 +/- 1%). It is filed as functional.
In assay [12] the test system is MDA-MB-231. Put plainly: Inhibition of EBI binding to beta-tubulin colchicine binding site in human MDA-MB-231 cells at 10 uM preincubated for 16 hrs followed by EBI addition and measured after 1.5 hrs by Western blot analysis. Type of assay: cell-based.
Assay [13] relates to A549. Kind of assay: Cell cycle arrest in human A549 cells assessed as accumulation at sub-G0 phase at 275 nM after 20 hrs by propidium iodide staining based flow cytometry (reference value: 6.6 +/- 0.1%). It is filed as functional.
Assay [14] relates to A549. Kind of assay: Cell cycle arrest in human A549 cells assessed as accumulation at G0/G1 phase at 275 nM after 20 hrs by propidium iodide staining based flow cytometry (reference value: 66 +/- 1%). It is filed as functional.
For assay [15], the system named is A549. Kind of assay: Cell cycle arrest in human A549 cells assessed as accumulation at S phase at 275 nM after 20 hrs by propidium iodide staining based flow cytometry (reference value: 16 +/- 1%). It is filed as functional.
In assay [16] the test system is A549. Put plainly: Cell cycle arrest in human A549 cells assessed as accumulation at G2/M phase at 275 nM after 20 hrs by propidium iodide staining based flow cytometry (reference value: 11 +/- 1%). It is filed as functional.
In assay [17] the test system is HMEC-1. Kind of assay: Vascular disruptive activity in HMEC1 cells assessed as disruption of preformed tubular networks after 4 hrs by matrigel based assay. Type of assay: functional, cell-based. The conditions noted are these: Homo sapiens.
Assay [18] deals with MDA-MB-231. Put plainly: Inhibition of EBI binding to beta-tubulin colchicine binding site in human MDA-MB-231 cells at 100 uM preincubated for 16 hrs followed by EBI addition and measured after 1.5 hrs by Western blot analysis. It is filed as cell-based.
The subject of assay [19] is A549. Put plainly: Cell cycle arrest in human A549 cells assessed as accumulation at sub-G0 phase at 1500 nM after 20 hrs by propidium iodide staining based flow cytometry (reference value: 6.6 +/- 0.1%). Type of assay: functional.
Assay [20] relates to A549. Kind of assay: Cell cycle arrest in human A549 cells assessed as accumulation at G0/G1 phase at 1500 nM after 20 hrs by propidium iodide staining based flow cytometry (reference value: 66 +/- 1%). It is filed as functional.
In assay [21] the test system is A549. Kind of assay: Cell cycle arrest in human A549 cells assessed as accumulation at S phase at 1500 nM after 20 hrs by propidium iodide staining based flow cytometry (reference value: 16 +/- 1%). It is filed as functional.
For assay [22], the system named is A549. Put plainly: Cell cycle arrest in human A549 cells assessed as accumulation at G2/M phase at 1500 nM after 20 hrs by propidium iodide staining based flow cytometry (reference value: 11 +/- 1%). Type of assay: functional.
The subject of assay [23] is A549. Put plainly: Cell cycle arrest in human A549 cells assessed as accumulation at sub-G0 phase at 400 nM after 20 hrs by propidium iodide staining based flow cytometry (reference value: 6.6 +/- 0.1%). It is filed as functional.
The subject of assay [24] is A549. Put plainly: Cell cycle arrest in human A549 cells assessed as accumulation at G0/G1 phase at 400 nM after 20 hrs by propidium iodide staining based flow cytometry (reference value: 66 +/- 1%). It is filed as functional.
The subject of assay [25] is A549. Kind of assay: Cell cycle arrest in human A549 cells assessed as accumulation at S phase at 400 nM after 20 hrs by propidium iodide staining based flow cytometry (reference value: 16 +/- 1%). It is filed as functional.
Assay [26] concerns A549. Put plainly: Cell cycle arrest in human A549 cells assessed as accumulation at G2/M phase at 400 nM after 20 hrs by propidium iodide staining based flow cytometry (reference value: 11 +/- 1%). Type of assay: functional.
The test system of assay [27] is A549. Put plainly: Cell cycle arrest in human A549 cells assessed as accumulation at sub-G0 phase at 230 nM after 20 hrs by propidium iodide staining based flow cytometry (reference value: 6.6 +/- 0.1%). Type of assay: functional.
Assay [28] relates to A549. Put plainly: Cell cycle arrest in human A549 cells assessed as accumulation at G0/G1 phase at 230 nM after 20 hrs by propidium iodide staining based flow cytometry (reference value: 66 +/- 1%). Type of assay: functional.
Assay [29] has as its system A549. Kind of assay: Cell cycle arrest in human A549 cells assessed as accumulation at S phase at 230 nM after 20 hrs by propidium iodide staining based flow cytometry (reference value: 16 +/- 1%). Type of assay: functional.
Assay [30] has as its system A549. Put plainly: Cell cycle arrest in human A549 cells assessed as accumulation at G2/M phase at 230 nM after 20 hrs by propidium iodide staining based flow cytometry (reference value: 11 +/- 1%). Type of assay: functional.

In general, IC50 refers to the midpoint of a concentration-inhibition curve. Lower therefore signals greater potency. Take `COc1ccc(/C=C\c2cc(OC)c(OC)c(OC)c2)cc1NC(=O)Oc1ccccc1F`: the IC50 in the assay with HT-29 is 110 nM; with MCF7 it was 62 nM; in the assay with HeLa, 17 nM; with A549 [1], 320 nM; in the assay on HL-60, 4 nM; in the assay with HMEC-1 [2], 180 nM. For the same molecule, the figures for the IC50 in the assay on HEK293 and in the assay with MDA-MB-231 [3] were 65 nM and 71 nM, respectively. Further, the Activity came out at 17% in the assay with A549 [4], 31% in the assay on A549 [5], 13% with A549 [6] and 39% in the assay with A549 [7].
On to `COc1ccc(/C=C\c2cc(OC)c(OC)c(OC)c2)cc1NC(=O)Oc1ccccc1Br`, for which the IC50 in the assay on HT-29 was determined as 7.5 nM; in the assay on MCF7, 18.9 nM; with HeLa, 2.6 nM; in the assay on A549 [1], 180 nM; in the assay with HL-60, 3 nM; with HMEC-1 [2] it was 22 nM. Moreover, the IC50 in the assay on HEK293 came to 8 nM; in the assay on MDA-MB-231 [3], 13.4 nM. For the same molecule, the Activity stood at 17% with A549 [8], 29% in the assay on A549 [9], 10% with A549 [10] and 44% in the assay with A549 [11].
As for `COc1ccc(OC(=O)Nc2cc(/C=C\c3cc(OC)c(OC)c(OC)c3)ccc2OC)cc1`, the IC50 was found to be 350 nM in the assay with HT-29; 230 nM in the assay with MCF7; 200 nM in the assay with HeLa; 550 nM in the assay with A549 [1]; 50 nM in the assay on HL-60; 120 nM in the assay on HMEC-1 [2]. Besides, the IC50 with HEK293 was determined as 130 nM; in the assay with MDA-MB-231 [3], 69 nM. For the same molecule, the inhibition result with MDA-MB-231 [12] is “Active”. In addition, the Activity in the assay on A549 [13] was 14%; in the assay on A549 [14], 25%; with A549 [15], 14%; with A549 [16] it was 46%; in the assay on HMEC-1 [17], “Dose-dependent effect”.
As for `COc1ccc(/C=C\c2cc(OC)c(OC)c(OC)c2)cc1NC(=O)Oc1ccccc1OC`, the IC50 in the assay with HT-29 is 290 nM; with MCF7, 230 nM; in the assay with HeLa, 348 nM; in the assay with A549 [1], 3000 nM; in the assay with HL-60 it was 350 nM; with HMEC-1 [2], 400 nM. For the same molecule, the values for the IC50 in the assay with HEK293 and in the assay on MDA-MB-231 [3] were 160 nM and more than 100 nM, respectively. Moreover, the inhibition entry with MDA-MB-231 [18] was “Active”. Besides, the Activity was 17% in the assay on A549 [19]; 29% with A549 [20]; 12% with A549 [21]; 43% in the assay with A549 [22]; “Dose-dependent effect” with HMEC-1 [17].
In the case of `COc1ccc(/C=C\c2cc(OC)c(OC)c(OC)c2)cc1NC(=O)Oc1ccc(Cl)cc1`, the IC50 with HT-29 came out at 31 nM; with MCF7 it was 82 nM; in the assay on HeLa it was 24 nM; in the assay on A549 [1], 800 nM; with HL-60, 770 nM; in the assay with HMEC-1 [2], 76 nM. Also, the IC50 with HEK293 came out at 142 nM; with MDA-MB-231 [3] it was 9.39 nM. Besides, the Activity is 20% in the assay on A549 [23], 21% with A549 [24], 18% in the assay on A549 [25] and 41% with A549 [26].
On to `COc1ccc(/C=C\c2cc(OC)c(OC)c(OC)c2)cc1NC(=O)Oc1ccccc1C`, for which the half-maximal inhibitory concentration (IC50) in the assay on HT-29 turned out to be 160 nM; in the assay with MCF7 it was 380 nM; in the assay on HeLa it was 50 nM; with A549 [1], 460 nM; in the assay with HL-60, 222 nM; in the assay on HMEC-1 [2], 55 nM. Besides, the IC50 in the assay with HEK293 was 60 nM; in the assay with MDA-MB-231 [3], 21 nM. Besides, the Activity stood at 16% in the assay on A549 [27], 31% in the assay on A549 [28], 13% in the assay on A549 [29] and 40% in the assay on A549 [30].
